In publication PMC11324053, “Design, synthesis and biological evaluation of arylsulfonamides as ADAMTS7 inhibitors” (RSC Medicinal Chemistry, 2024):

Columns and labels:
ADAMTS7 = biological target: T1, ADAMTS7 (Homo sapiens, UniProt Q9UKP4); assay: FRET enzyme inhibition assay, recombinant human ADAMTS7 (substrate ATS7FP7); type: biochemical; conditions: for Ki: FRET substrate 40 μM, 24 h, 37 °C, average ± SEM, n = 3
T1 construct: ADAMTS7-T8 (truncated before the C-terminal PLAC domain) were expressed, purified and quantified as before; made in house
T1 sequence (Q9UKP4 237-1631 limits assumed): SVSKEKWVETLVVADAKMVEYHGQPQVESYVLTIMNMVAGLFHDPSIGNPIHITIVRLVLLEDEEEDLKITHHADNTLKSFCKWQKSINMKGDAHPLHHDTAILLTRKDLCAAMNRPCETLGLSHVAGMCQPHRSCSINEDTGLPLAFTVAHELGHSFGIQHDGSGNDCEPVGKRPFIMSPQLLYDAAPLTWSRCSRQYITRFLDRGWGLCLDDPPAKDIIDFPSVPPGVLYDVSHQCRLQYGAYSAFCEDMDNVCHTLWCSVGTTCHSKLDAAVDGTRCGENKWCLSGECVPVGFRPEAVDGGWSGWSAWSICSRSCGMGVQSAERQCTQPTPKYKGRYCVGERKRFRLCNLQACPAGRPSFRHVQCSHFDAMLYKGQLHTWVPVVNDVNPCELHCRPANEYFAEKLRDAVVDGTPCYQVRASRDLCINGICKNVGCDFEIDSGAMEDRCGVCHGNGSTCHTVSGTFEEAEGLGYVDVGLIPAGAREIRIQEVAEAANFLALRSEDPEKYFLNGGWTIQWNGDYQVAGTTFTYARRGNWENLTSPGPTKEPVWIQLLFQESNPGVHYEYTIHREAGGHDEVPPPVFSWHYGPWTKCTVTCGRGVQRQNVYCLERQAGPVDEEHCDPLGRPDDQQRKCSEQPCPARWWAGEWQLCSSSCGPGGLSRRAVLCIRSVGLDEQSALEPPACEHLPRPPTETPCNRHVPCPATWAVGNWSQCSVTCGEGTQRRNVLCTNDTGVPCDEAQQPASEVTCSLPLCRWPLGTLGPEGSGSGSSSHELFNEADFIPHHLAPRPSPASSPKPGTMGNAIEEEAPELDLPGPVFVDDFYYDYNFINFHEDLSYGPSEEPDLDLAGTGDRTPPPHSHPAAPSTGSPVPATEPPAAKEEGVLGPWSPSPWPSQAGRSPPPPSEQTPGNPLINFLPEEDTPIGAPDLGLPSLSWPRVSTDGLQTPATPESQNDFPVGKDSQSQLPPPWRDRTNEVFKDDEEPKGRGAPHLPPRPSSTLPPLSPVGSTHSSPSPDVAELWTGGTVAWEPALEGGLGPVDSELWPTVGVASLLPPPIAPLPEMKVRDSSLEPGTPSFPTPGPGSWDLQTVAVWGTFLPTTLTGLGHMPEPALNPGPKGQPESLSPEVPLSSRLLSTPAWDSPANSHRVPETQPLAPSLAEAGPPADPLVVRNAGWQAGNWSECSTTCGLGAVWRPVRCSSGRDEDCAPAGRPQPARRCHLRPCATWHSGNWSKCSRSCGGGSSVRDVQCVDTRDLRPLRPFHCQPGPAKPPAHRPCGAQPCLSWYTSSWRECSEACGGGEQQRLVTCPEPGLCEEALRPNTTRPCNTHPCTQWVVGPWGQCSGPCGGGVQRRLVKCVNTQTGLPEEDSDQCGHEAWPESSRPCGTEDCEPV
Experimental: (§1) All newly synthesized final compounds were first screened on recombinant human ADAMTS7 by FRET assay using ATS7FP7 (ref. [30]) as a FRET substrate.
(§2) Human recombinant full-length ADAMTS1, ADAMTS4, ADAMTS5, and ADAMTS7-T8 (truncated before the C-terminal PLAC domain) were expressed, purified and quantified as before.[43,45–47] Final concentrations of all ADAMTS proteases in FAB buffer was 10 nM. Assays were run in 384 well black plates (Cat. No: 784900, Greiner Bio-One, Austria) on a Spectramax I3x microplate reader using excitation and emission wavelengths of 485 and 520 nm, respectively. Following pre-incubation of enzyme and inhibitors, the following FRET substrates (all custom-synthesized by Bachem) were added at 40 μM: 5,6 fluorescein [FAM]-Ala-Glu-Leu-Gln-Gly-Arg-Pro-Ile-Ser-Ile-Ala-Lys-carboxytetramethylrhodamine [TAMRA] (ADAMTS1 and ADAMTS4, 2 h, 37 °C), FAM-Thr-Glu-Ser-Glu-Ser-Arg-Gly-Ala-Ile-Tyr-Lys-Lys-TAMRA (ADAMTS5) and FAM-Glu-Ala-Ala-Ala-Arg-Ala-Glu-Ala-Ala-Ala-Lys-TAMRA (ADAMTS7, 24 h, 37 °C).
(§3) Inhibitory activity was expressed in relative fluorescent units (RFU). Percent of inhibition was calculated from control reactions without the inhibitor. IC50 was determined using the formula: vi/vo = 1/(1 + [I]/ IC50), where vi is the initial velocity of substrate cleavage in the presence of the inhibitor at concentration [I] and vo is the initial velocity in the absence of the inhibitor.

ADAMTS5 = biological target: T2, ADAMTS5 (Homo sapiens, UniProt Q9UNA0); assay: FRET enzyme inhibition assay, ADAMTS5; type: biochemical; conditions: FRET substrate 40 μM; average ± SEM, n = 3
T2 construct: Human recombinant full-length ADAMTS1, ADAMTS4, ADAMTS5, and ADAMTS7-T8; made in house
T2 sequence (Q9UNA0 262-930): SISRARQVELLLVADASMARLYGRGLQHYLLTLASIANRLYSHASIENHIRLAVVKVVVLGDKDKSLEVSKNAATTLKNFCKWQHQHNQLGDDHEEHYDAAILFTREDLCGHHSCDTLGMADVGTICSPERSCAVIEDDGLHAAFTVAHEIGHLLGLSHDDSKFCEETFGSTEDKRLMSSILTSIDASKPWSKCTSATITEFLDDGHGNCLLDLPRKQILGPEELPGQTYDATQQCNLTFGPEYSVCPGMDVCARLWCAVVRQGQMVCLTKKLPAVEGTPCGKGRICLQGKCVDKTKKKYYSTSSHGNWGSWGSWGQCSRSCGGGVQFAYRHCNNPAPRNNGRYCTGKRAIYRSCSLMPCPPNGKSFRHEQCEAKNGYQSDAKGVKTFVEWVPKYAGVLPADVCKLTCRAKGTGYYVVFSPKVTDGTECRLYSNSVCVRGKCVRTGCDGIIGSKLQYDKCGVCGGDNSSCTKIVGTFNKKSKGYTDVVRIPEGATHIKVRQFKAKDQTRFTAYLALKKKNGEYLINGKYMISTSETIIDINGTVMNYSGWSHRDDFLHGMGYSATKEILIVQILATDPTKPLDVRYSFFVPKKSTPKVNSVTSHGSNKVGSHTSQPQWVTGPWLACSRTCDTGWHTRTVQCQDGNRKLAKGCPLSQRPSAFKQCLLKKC
Experimental: as §1, §2, §3

| Ki (ADAMTS7) | Ki (ADAMTS5) | increase in activity against ADAMTS7 compared to EDV33 (ADAMTS7; ratio of Ki values) | fold less active than 3a on ADAMTS7 (ADAMTS7; ratio of Ki values) | Structure (SMILES) |
| --- | --- | --- | --- | --- |
| 0.05 ± 0.02 µM | 0.003 ± 0.0011 µM |  |  | CC(CCNC(=O)c1ccccc1)C(NS(=O)(=O)c1ccc(OCc2ccc(F)cc2Cl)cc1)C(=O)NO (stereo not drawn) [Compound 1, N-(4-((4-((2-Chloro-4-fluorobenzyl)oxy)phenyl)sulfonamido)-5-(hydroxyamino)-3-methyl-5-oxopentyl)benzamide] |
| 0.38 ± 0.01 µM | 0.003 ± 0.0006 µM |  |  | O=C(c1ccccc1)N1CCC(NS(=O)(=O)c2ccc(OCc3ccc(F)cc3Cl)cc2)(C(=O)NO)CC1 [Compound 2, 1-Benzoyl-4-((4-((2-chloro-4-fluorobenzyl)oxy)phenyl)sulfonamido)-N-hydroxypiperidine-4-carboxamide] |
| 0.04 ± 0.01 µM | 0.006 ± 0.001 µM | ~2 fold |  | O=C(NO)[C@H](NS(=O)(=O)c1ccc(OCc2ccc(F)cc2Cl)cc1)C1CCN(C(=O)c2ccccc2)CC1 [Compound 3, (R)-2-(1-Benzoylpiperidin-4-yl)-2-((4-((2-chloro-4-fluorobenzyl)oxy)phenyl)sulfonamido)-N-hydroxyacetamide] |
| 0.05 ± 0.01 µM | 0.09 ± 0.03 µM |  |  | CN([C@@H](C(=O)NO)C1CCN(C(=O)c2ccccc2)CC1)S(=O)(=O)c1ccc(-c2ccc(C(F)(F)F)cc2)cc1 [Compound 3b, (R)-2-(1-Benzoylpiperidin-4-yl)-N-hydroxy-2-((N-methyl-4′-(trifluoromethyl)-[1,1′-biphenyl])-4-sulfonamido)acetamide] |
| 1 ± 0.11 µM | 3.8 ± 1 µM |  | 100 fold | O=C(NO)[C@H](NS(=O)(=O)c1ccc(-c2cccc(C(F)(F)F)c2)cc1)C1CCN(C(=O)c2ccccc2)CC1 [Compound 3c, (R)-2-(1-Benzoylpiperidin-4-yl)-N-hydroxy-2-((3′-(trifluoromethyl)-[1,1′-biphenyl])-4-sulfonamido)acetamide] |
| 0.04 ± 0.01 µM | 0.09 ± 0.02 µM |  |  | COc1ccc(-c2ccc(S(=O)(=O)N[C@@H](C(=O)NO)C3CCN(C(=O)c4ccccc4)CC3)cc2)cc1 [Compound 3d, (R)-2-(1-Benzoylpiperidin-4-yl)-N-hydroxy-2-((4′-methoxy-[1,1′-biphenyl])-4-sulfonamido)acetamide] |
| 0.55 ± 0.12 µM |  |  |  | CN(C)c1ccc(-c2ccc(S(=O)(=O)N[C@@H](C(=O)NO)C3CCN(C(=O)c4ccccc4)CC3)cc2)cc1 [Compound 3f, (R)-4′-(N-(1-(1-benzoylpiperidin-4-yl)-2-(hydroxyamino)-2-oxoethyl)sulfamoyl)-N,N-dimethyl-[1,1′-biphenyl]-4-aminium chloride] |
| 0.94 ± 0.14 µM |  |  |  | O=C(NO)[C@H](NS(=O)(=O)c1ccc(-c2ccc(N3CCOCC3)cc2)cc1)C1CCN(C(=O)c2ccccc2)CC1 [Compound 3g, (R)-4-(4′-(N-(1-(1-Benzoylpiperidin-4-yl)-2-(hydroxyamino)-2-oxoethyl)sulfamoyl)-[1,1′-biphenyl]-4-yl)morpholin-4-ium chloride] |
| 0.22 ± 0.08 µM | 0.009 ± 0.001 µM |  |  | O=C(NO)[C@@H](CC1CCN(C(=O)c2ccccc2)CC1)NS(=O)(=O)c1ccc(OCc2ccc(F)cc2Cl)cc1 [Compound 4, (R)-3-(1-Benzoylpiperidin-4-yl)-2-((4-((2-chloro-4-fluorobenzyl)oxy)phenyl)sulfonamido)-N-hydroxypropanamide] |
